The values that follow come from US6458194B1, “Azo dye compound having 1,2,4-triazole as the azo component” (Fuji Photo Film Co., Ltd., priority 1999, dated 2002).

Holding throughout (type): physicochemical
Data set [1] in a line: Color fastness against light, Xe lamp irradiation of recorded image. The following applies: Xe lamp 17,000 lux, 3 days; portion with initial reflection density 1.0. From the text:
Next, the thermal transfer image accepting materials after such recording were irradiated with a Xe lamp (17,000 lux) for 3 days to evaluate the color fastness. More specifically, a portion showing a status-A reflection density of 1.0 before the irradiation was again measured for the status-A reflection density after the irradiation, which was expressed in a residual rate (in percent) to the pre-irradiation reflection density.

Data set [2] in a line: Absorption characteristic in ethyl acetate. From the text:
FIG. 1 is a spectrum chart showing an absorption characteristic in ethyl acetate of Compound 9 of the present invention where optical density of the transmitted light through a cell having the light path length of 1 cm is 1.0. Wave lengths giving the maximum absorption (λmax) are 428 nm for Compound 9, 440 nm for Compound 18, 438 nm for Compound 31, 442 nm for Compound 32, 435 nm for Compound 33 and 434 nm for Compound 3.

Data set [3] can be described thus: Suitability in ink production (solubility of coating composition for dye donating layer). The text has this:
Suitability in Ink Production:
∘ coating composition for the thermal transfer dye donating layer has a good solubility;
Δ time-consuming heating is necessary to dissolve the coating composition for the thermal transfer dye donating layer; and
X incomplete solubilization of the coating composition for the thermal transfer dye donating layer having a undissolved portion of the dye crystal.

SMILES strings stand for the structures.

As to `CCSc1nsc(N=Nc2c(C(C)(C)C)nn3nc(C(C)C)[nH]c23)n1` [Compound 31], the “Color Fastness (residual rate of status-A reflection density)” value in data set [1] stood at 90%. Besides, the “Wave length giving the maximum absorption (λmax)” value in data set [2] worked out at 438 nm.
Regarding `Cc1nn2nc(C(C)C)c(N=Nc3nc(-c4ccccc4)ns3)c2[nH]1` [Compound 21], in data set [1], the “Color Fastness (residual rate of status-A reflection density)” value is listed as 87%.
Still for that read-out and setting: under `CCOc1nn2nc(C)[nH]c2c1N=Nc1nc(-c2ccc(C(F)(F)F)cc2)ns1` [Compound 11] stands 88%; under `Cc1nn2nc(C(C)(C)C)c(N=Nc3nc(-c4ccccc4)ns3)c2[nH]1` [Compound 10], 90%.
On to `CC(C)c1nn2nc(-c3ccccc3Cl)c(N=Nc3nc(-c4ccccc4)ns3)c2[nH]1` [Compound 9], for which the “Color Fastness (residual rate of status-A reflection density)” value in data set [1] came out at 92%. In data set [2], the “Wave length giving the maximum absorption (λmax)” value was 428 nm.
Turning to `CCS(=O)(=O)c1nsc(N=Nc2c(C(C)(C)C)nn3nc(C(C)C)[nH]c23)n1` [Compound 32], in data set [1], the “Color Fastness (residual rate of status-A reflection density)” value was 93%. Moreover, in data set [2], the “Wave length giving the maximum absorption (λmax)” value worked out at 442 nm.
As for `CSc1nsc(N=Nc2c(C(C)(C)C)nn3nc(C(C)CN4C(=O)C=CC4=O)[nH]c23)n1` (stereo not drawn) [Compound 25], in data set [1], the “Color Fastness (residual rate of status-A reflection density)” value was found to be 90%.
On the same count and under the same terms, the figure for `CSc1nsc(N=Nc2c(C(C)(C)C)nn3nc(C(C)CN4C(=O)c5ccccc5C4=O)[nH]c23)n1` (stereo not drawn) [Compound 15] is 89%.
As to `CCSc1nsc(N=Nc2c(C)nn3nc(C)[nH]c23)n1` [Compound 3], the “Wave length giving the maximum absorption (λmax)” value in data set [2] came to 434 nm.
For the molecule `CCSc1nsc(N=Nc2c(C)nn3c(C(C)(C)C)n[nH]c23)n1` [Comparative Compound “a”, reference compound], in data set [1], the “Color Fastness (residual rate of status-A reflection density)” value came to 89%. For the same molecule, in data set [3], the “Suitability for ink production (in words)” value is “inferior”.
Take `CSc1nsc(N=Nc2c(C(C)(C)C)nn3nc(C(C)C)[nH]c23)n1` [Compound 4]: in data set [1], the “Color Fastness (residual rate of status-A reflection density)” value stood at 90%.
Same read-out and setting: under `COc1ccc(-c2nsc(N=Nc3c(C(C)(C)C)nn4nc(C(C)C)[nH]c34)n2)cc1` [Compound 20] stands 88%; under `CSc1nsc(N=Nc2c(-c3ccccc3)nn3nc(C(C)C)[nH]c23)n1` [Compound 7], 90%.
On to `CCS(=O)(=O)c1nsc(N=Nc2c(-c3ccccc3Cl)nn3nc(C(C)C)[nH]c23)n1` [Compound 18], for which, in data set [1], the “Color Fastness (residual rate of status-A reflection density)” value is 91%. Further, in data set [2], the “Wave length giving the maximum absorption (λmax)” value turned out to be 440 nm.
For the molecule `CCCc1nn2nc(C(C)(C)C)c(N=Nc3nc(SC)ns3)c2[nH]1` [Compound 5], in data set [1], the “Color Fastness (residual rate of status-A reflection density)” value is recorded as 91%.
Take `CCSc1nsc(/N=N/c2c(-c3ccccc3Cl)nn3nc(C(C)C)[nH]c23)n1` [Compound 34]: the “Color Fastness (residual rate of status-A reflection density)” value in data set [1] worked out at 91%.
